For series [1] the following is noted: dogs, reported; cited from earlier work.
The next series in a line: in vivo. Particulars: iv, 20 mg/kg.
For series [2] the following is noted: cited from earlier work.
A short description of series [3]: Toxicity-testing across the cell panel (range). The settings on record: human, African green monkey, hamster.

Read-outs that look alike come from different tables or passages of the source.

These results are taken from paper PMC8571282 (Nature Communications, 2021).

For `N#C[C@@]1(c2ccc3c(N)ncnn23)O[C@H](CO)[C@@H](O)[C@H]1O` [GS-441524], in series [1], the oral availability is on record as 89%. Moreover, in the series “in vivo”, the AUC(0-t) was determined as 81.1 µM·h, the Cmax worked out at 54.2 µM, the clearance is 14.3 mL/min/kg and the half-life is 3.4 h. The oral bioavailability in series [2] (SARS-CoV2 mouse model report, ref Li et al (J. Med Chem. 2021)) is reported as 5%. The oral availability in series [2] (mice, ref Wei et al. (Bioorg. Med Chem Lett 2021, 116364)) was 16%. Further, the cytotoxic concentration (CC50) at 72 h in series [3] was over 100 µM.

In general, AUC(0-t) refers to exposure summed from dosing to a finite time, without extrapolation to infinity. Low readings indicate low exposure, high ones high exposure. As a reminder, the Cmax is the maximum level reached in the sampled fluid or tissue. By clearance is commonly meant the volume of plasma or blood freed of the substance per unit of time. One may read the half-life as the time in which the quantity being followed falls by half. Low values mean fast loss, high ones slow loss. As usually defined, the CC50 is the concentration at which the toxic effect on the cells reaches its halfway point.
